Measured values as given in patent US20020137929A1, “1 - (3-heterocyclylphenyl) isothiourea, -isourea, -guanidine and -amidine herbicidal agents” (Intellectual Property Department, BASF Aktiengesellschaft, priority 1998, published 2002).

Key:
ECHCG (Barnyardgrass) [1] = experiment: Preemergence herbicidal evaluation; format: in vivo, Echinochloa crus-galli; details: rated 4-5 weeks after treatment
How it was run: (§1)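 Greenhouse preemergence test: seed-soil mix sown on ~1 inch soil; aqueous acetone spray at equivalent of ~0.0156–0.500 kg/ha; greenhouse-held and watered; scored 0–9 visually at 4–5 weeks.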

[2] = system: IPOHE (Morningglory, Ivyleaf); experiment: Postemergence herbicidal evaluation; format: in vivo, Ipomoea hederacea; details: postemergence
How it was run: (§2)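 Seedlings grown about two weeks were sprayed at 40 psi with compound dispersed in 50/50 acetone/water plus 0.5% TWEEN 20, at about 0.0156 to 0.500 kg/ha. Plants were kept in the greenhouse and scored 4–5 weeks later on a 0–9 visual scale against untreated controls.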

ZEAMX (Corn, Field) [3] = experiment: Preemergence herbicidal evaluation; format: in vivo, Zea mays; details: rated 4-5 weeks after treatment
How it was run: as §1

CASOB (Sicklepod) [4] = experiment: Postemergence herbicidal evaluation; format: in vivo, Cassia obtusifolia; details: postemergence
How it was run: as §2

GALAP (Galium) = experiment: Preemergence herbicidal evaluation; format: in vivo, Galium aparine; details: rated 4-5 weeks after treatment
How it was run: as §1

CASOB (Sicklepod) [5] = experiment: Preemergence herbicidal evaluation; format: in vivo, Cassia obtusifolia; details: rated 4-5 weeks after treatment
How it was run: as §1

SETVI (Foxtail, Green) = experiment: Preemergence herbicidal evaluation; format: in vivo, Setaria viridis; details: rated 4-5 weeks after treatment
How it was run: as §1

MOOVA (Monochoria) = experiment: Preemergence weed control under flooded paddy conditions; format: in vivo, Monochoria vaginalis; details: rated 3-4 weeks after treatment
How it was run: (§3)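 Using flooded silt loam (water 1.5 to 3 cm deep), seeds sown in the top 0.5 cm were exposed preemergence to compound pipetted into the flood at about 0.0313 to 0.500 kg/ha. Effects were scored 0-9 by eye three to four weeks later.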

CYPIR (Rice Flatsedge) = experiment: as above; format: in vivo, Cyperus iria; details: rated 3-4 weeks after treatment
How it was run: (§4)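 Seeds or propagules sown in top 0.5 cm of silt loam soil, flooded 1.5 to 3 cm above surface throughout. Compound in 50/50 v/v aqueous/acetone pipetted into flood water at about 0.0313 to 0.500 kg/ha. Visual 0-9 rating versus control after three to four weeks in greenhouse.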

[6] = system: ECHORC (Watergrass (Calif.)); experiment: as above; format: in vivo, Echinochloa oryzoides; details: rated 3-4 weeks after treatment
How it was run: as §4

CYPSE (Flatsedge) = experiment: as above; format: in vivo, Cyperus serotinus; details: 0.0313 kg/ha, rated 3-4 weeks after treatment
How it was run: as §3

[7] = system: TRZAWR (Wheat, Winter, cv Riband); experiment: Preemergence herbicidal evaluation; format: in vivo, Triticum aestivum; details: rated 4-5 weeks after treatment
How it was run: as §1

ECHCG (Barnyardgrass) [8] = experiment: Postemergence herbicidal evaluation; format: in vivo, Echinochloa crus-galli; details: postemergence
How it was run: as §2

ABUTH (Velvetleaf) = experiment: Preemergence herbicidal evaluation; format: in vivo, Abutilon theophrasti; details: rated 4-5 weeks after treatment
How it was run: as §1

[9] = system: IPOHE (Morningglory, Ivyleaf); experiment: Preemergence herbicidal evaluation; format: in vivo, Ipomoea hederacea; details: rated 4-5 weeks after treatment
How it was run: as §1

[10] = system: GLXMAW (Soybean, Williams); experiment: Preemergence herbicidal evaluation; format: in vivo, Glycine max, (L.) Merr. cv Williams; details: rated 4-5 weeks after treatment
How it was run: as §1

ZEAMX (Corn, Field) [11] = experiment: Postemergence herbicidal evaluation; format: in vivo, Zea mays; details: postemergence
How it was run: as §2

Question: CCOC(=O)CN1C(=O)C(CC(=O)O)SC1=Nc1cc(-n2nc(C)n(C(F)F)c2=O)c(F)cc1Cl (stereo not drawn) [Compound 112, 2-{{2-Chloro-5-[4-(difluoromethyl)-4,5-dihydro-3-methyl-5-oxo-1H-1,2,4-triazol-1-yl]-4-fluorophenyl}imino}-4-oxo-3,5-thiazolidinediacetic acid, 3-ethyl ester] was tested. Which “Preemergence herbicidal rating ECHCG” value (ECHCG (Barnyardgrass) [1]; rate 0.0313 kg/ha) did it give?
Answer: 0.0

Question: What about the “Preemergence herbicidal rating ECHCG” value (ECHCG (Barnyardgrass) [1]; rate 0.0625 kg/ha) of the same molecule?
Answer: 0.0

Question: And the “Preemergence herbicidal rating ECHCG” value (ECHCG (Barnyardgrass) [1]; rate 0.1250 kg/ha)?
Answer: 0.0

Question: And the “Preemergence herbicidal rating ECHCG” value (ECHCG (Barnyardgrass) [1]; rate 0.2500 kg/ha)?
Answer: 0.0

Question: What about the “herbicidal rating IPOHE” value ([2]; rate 0.0158 kg/ha) of the same molecule?
Answer: 9.0

Question: And the “herbicidal rating IPOHE” value ([2]; rate 0.0315 kg/ha)?
Answer: 9.0

Question: What about the “herbicidal rating IPOHE” value ([2]; rate 0.0630 kg/ha) of the same molecule?
Answer: 9.0

Question: What about the “Preemergence herbicidal rating ZEAMX” value (ZEAMX (Corn, Field) [3]; rate 0.0313 kg/ha) of the same molecule?
Answer: 0.0

Question: And the “Preemergence herbicidal rating ZEAMX” value (ZEAMX (Corn, Field) [3]; rate 0.0625 kg/ha)?
Answer: 0.0

Question: What about the “Preemergence herbicidal rating ZEAMX” value (ZEAMX (Corn, Field) [3]; rate 0.1250 kg/ha) of the same molecule?
Answer: 1.0

Question: What about the “Preemergence herbicidal rating ZEAMX” value (ZEAMX (Corn, Field) [3]; rate 0.2500 kg/ha) of the same molecule?
Answer: 4.0

Question: What about the “herbicidal rating CASOB” value (CASOB (Sicklepod) [4]; rate 0.0158 kg/ha) of the same molecule?
Answer: 1.0

Question: What about the “herbicidal rating CASOB” value (CASOB (Sicklepod) [4]; rate 0.0315 kg/ha) of the same molecule?
Answer: 1.0

Question: And the “herbicidal rating CASOB” value (CASOB (Sicklepod) [4]; rate 0.0630 kg/ha)?
Answer: 2.0

Question: What about the “Preemergence herbicidal rating GALAP” value (GALAP (Galium); rate 0.0313 kg/ha) of the same molecule?
Answer: 0.0

Question: What about the “Preemergence herbicidal rating GALAP” value (GALAP (Galium); rate 0.0625 kg/ha) of the same molecule?
Answer: 0.0

Question: What about the “Preemergence herbicidal rating GALAP” value (GALAP (Galium); rate 0.1250 kg/ha) of the same molecule?
Answer: 0.0

Question: And the “Preemergence herbicidal rating GALAP” value (GALAP (Galium); rate 0.2500 kg/ha)?
Answer: 0.0

Question: And the “Preemergence herbicidal rating CASOB” value (CASOB (Sicklepod) [5]; rate 0.0313 kg/ha)?
Answer: 0.0

Question: And the “Preemergence herbicidal rating CASOB” value (CASOB (Sicklepod) [5]; rate 0.0625 kg/ha)?
Answer: 0.0

Question: What about the “Preemergence herbicidal rating CASOB” value (CASOB (Sicklepod) [5]; rate 0.1250 kg/ha) of the same molecule?
Answer: 0.0

Question: What about the “Preemergence herbicidal rating CASOB” value (CASOB (Sicklepod) [5]; rate 0.2500 kg/ha) of the same molecule?
Answer: 0.0

Question: And the “Preemergence herbicidal rating SETVI” value (SETVI (Foxtail, Green); rate 0.0313 kg/ha)?
Answer: 1.0

Question: And the “Preemergence herbicidal rating SETVI” value (SETVI (Foxtail, Green); rate 0.0625 kg/ha)?
Answer: 0.0

Question: What about the “Preemergence herbicidal rating SETVI” value (SETVI (Foxtail, Green); rate 0.1250 kg/ha) of the same molecule?
Answer: 0.0

Question: What about the “Preemergence herbicidal rating SETVI” value (SETVI (Foxtail, Green); rate 0.2500 kg/ha) of the same molecule?
Answer: 0.0

Question: What about the “MOOVA herbicidal effect rating” value (MOOVA (Monochoria); 0.0313 kg/ha) of the same molecule?
Answer: 9.0

Question: What about the “MOOVA herbicidal effect rating” value (MOOVA (Monochoria); 0.0625 kg/ha) of the same molecule?
Answer: 9.0

Question: And the “MOOVA herbicidal effect rating” value (MOOVA (Monochoria); 0.1250 kg/ha)?
Answer: 9.0

Question: And the “MOOVA herbicidal effect rating” value (MOOVA (Monochoria); 0.2500 kg/ha)?
Answer: 9.0

Question: What about the “CYPIR herbicidal effect rating” value (CYPIR (Rice Flatsedge); 0.0313 kg/ha) of the same molecule?
Answer: 0.0

Question: And the “CYPIR herbicidal effect rating” value (CYPIR (Rice Flatsedge); 0.0625 kg/ha)?
Answer: 3.0

Question: What about the “CYPIR herbicidal effect rating” value (CYPIR (Rice Flatsedge); 0.1250 kg/ha) of the same molecule?
Answer: 6.0

Question: And the “CYPIR herbicidal effect rating” value (CYPIR (Rice Flatsedge); 0.2500 kg/ha)?
Answer: 7.0

Question: What about the “ECHORC herbicidal effect rating” value ([6]; 0.0313 kg/ha) of the same molecule?
Answer: 0.0

Question: What about the “ECHORC herbicidal effect rating” value ([6]; 0.0625 kg/ha) of the same molecule?
Answer: 3.0

Question: And the “ECHORC herbicidal effect rating” value ([6]; 0.1250 kg/ha)?
Answer: 3.0

Question: What about the “ECHORC herbicidal effect rating” value ([6]; 0.2500 kg/ha) of the same molecule?
Answer: 3.0

Question: And the “CYPSE herbicidal effect rating” value (CYPSE (Flatsedge))?
Answer: 0.0

Question: What about the “Preemergence herbicidal rating TRZAWR” value ([7]; rate 0.0313 kg/ha) of the same molecule?
Answer: 0.0

Question: What about the “Preemergence herbicidal rating TRZAWR” value ([7]; rate 0.0625 kg/ha) of the same molecule?
Answer: 0.0

Question: What about the “Preemergence herbicidal rating TRZAWR” value ([7]; rate 0.1250 kg/ha) of the same molecule?
Answer: 0.0

Question: What about the “Preemergence herbicidal rating TRZAWR” value ([7]; rate 0.2500 kg/ha) of the same molecule?
Answer: 1.0

Question: And the “herbicidal rating ECHCG” value (ECHCG (Barnyardgrass) [8]; rate 0.0158 kg/ha)?
Answer: 2.0

Question: And the “herbicidal rating ECHCG” value (ECHCG (Barnyardgrass) [8]; rate 0.0315 kg/ha)?
Answer: 4.0

Question: What about the “herbicidal rating ECHCG” value (ECHCG (Barnyardgrass) [8]; rate 0.0630 kg/ha) of the same molecule?
Answer: 4.0

Question: What about the “Preemergence herbicidal rating ABUTH” value (ABUTH (Velvetleaf); rate 0.0313 kg/ha) of the same molecule?
Answer: 0.0

Question: What about the “Preemergence herbicidal rating ABUTH” value (ABUTH (Velvetleaf); rate 0.0625 kg/ha) of the same molecule?
Answer: 0.0

Question: And the “Preemergence herbicidal rating ABUTH” value (ABUTH (Velvetleaf); rate 0.2500 kg/ha)?
Answer: 1.0

Question: What about the “Preemergence herbicidal rating IPOHE” value ([9]; rate 0.0313 kg/ha) of the same molecule?
Answer: 0.0

Question: And the “Preemergence herbicidal rating IPOHE” value ([9]; rate 0.0625 kg/ha)?
Answer: 0.0

Question: What about the “Preemergence herbicidal rating IPOHE” value ([9]; rate 0.1250 kg/ha) of the same molecule?
Answer: 0.0

Question: And the “Preemergence herbicidal rating IPOHE” value ([9]; rate 0.2500 kg/ha)?
Answer: 0.0

Question: What about the “Preemergence herbicidal rating GLXMAW” value ([10]; rate 0.0313 kg/ha) of the same molecule?
Answer: 0.0

Question: What about the “Preemergence herbicidal rating GLXMAW” value ([10]; rate 0.0625 kg/ha) of the same molecule?
Answer: 1.0

Question: And the “Preemergence herbicidal rating GLXMAW” value ([10]; rate 0.1250 kg/ha)?
Answer: 3.0

Question: What about the “Preemergence herbicidal rating GLXMAW” value ([10]; rate 0.2500 kg/ha) of the same molecule?
Answer: 3.0

Question: What about the “herbicidal rating ZEAMX” value (ZEAMX (Corn, Field) [11]; rate 0.0158 kg/ha) of the same molecule?
Answer: 4.5

Question: What about the “herbicidal rating ZEAMX” value (ZEAMX (Corn, Field) [11]; rate 0.0315 kg/ha) of the same molecule?
Answer: 4.5

Question: What about the “herbicidal rating ZEAMX” value (ZEAMX (Corn, Field) [11]; rate 0.0630 kg/ha) of the same molecule?
Answer: 5.0
